In PubChem BioAssay (NCI) one finds GI50 and TGI data, which are given here for twelve compounds.

Each structure is given as a SMILES string.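 The compound was tested at five concentrations on cells cultured in 96-well plates, with a 48-hour exposure period. GI50 is the concentration that inhibits growth by half. Definition used: TGI = concentration required for complete inhibition of growth.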

Some test systems named below: NCI-H23 lung; HOP-92 NSCLC; SF-295 CNS; UACC-257 melanoma; A549 NSCLC; PC-3 prostate; CCRF-CEM leukemia; SW-620 colon.
Common to all, as to experiment: NCI tumour cell line growth inhibition, 48 h

Regarding `NC1CCN(c2nc(Nc3cccc(C(F)(F)F)c3)c3c(=O)[nH]ccc3n2)CC1`, the GI50 in the assay on NCI-H23 lung is 1.58 µM; in the assay with HOP-92 NSCLC, 1.44 µM; in the assay on SF-295 CNS it was 1.96 µM; in the assay with UACC-257 melanoma it was 2.06 µM; in the assay on A549 NSCLC, 1.34 µM; in the assay with PC-3 prostate, 1.78 µM. The results for the GI50 with CCRF-CEM leukemia and in the assay on SW-620 colon were 1.26 µM and 1.19 µM, respectively. Moreover, the TGI was found to be 3.11 µM in the assay with NCI-H23 lung; 3.04 µM with HOP-92 NSCLC; 3.59 µM in the assay with SF-295 CNS; 3.98 µM with UACC-257 melanoma; 2.99 µM in the assay with A549 NSCLC; 3.59 µM with PC-3 prostate. Besides, the TGI in the assay on CCRF-CEM leukemia came to 6.88 µM; with SW-620 colon, 2.67 µM.
Regarding `CCN1C(=S)N(CC)C2C1NC(=S)N2/N=C/C=C/c1ccccc1` (stereo not drawn), the GI50 with NCI-H23 lung was 4.49 µM; with HOP-92 NSCLC, 4 µM; in the assay on SF-295 CNS, 1.04 µM; in the assay on UACC-257 melanoma, 3.68 µM; with A549 NSCLC, 2.52 µM; with PC-3 prostate, 1.52 µM. Further, the figures for the GI50 in the assay with CCRF-CEM leukemia and with SW-620 colon were 1.26 µM and 0.803 µM, respectively. Further, the TGI stood at 22 µM in the assay on NCI-H23 lung; 20.9 µM with HOP-92 NSCLC; 11.8 µM in the assay on SF-295 CNS; 19.5 µM with UACC-257 melanoma; 17.8 µM in the assay on A549 NSCLC; 16 µM in the assay with PC-3 prostate. Also, the TGI was determined as 12 µM with CCRF-CEM leukemia and 17.8 µM in the assay with SW-620 colon.
On to `CC1=C[C@H]2c3c(c(O)c(O)c4oc5ccccc5c(=O)c34)[C@H](c3cc(O)c(O)c4oc5ccccc5c(=O)c34)[C@H]2C(C)(C)C1`, for which the GI50 in the assay on NCI-H23 lung is 0.518 µM; with HOP-92 NSCLC, 1.39 µM; in the assay on SF-295 CNS, 0.443 µM; with UACC-257 melanoma it was 2.65 µM; with A549 NSCLC, 0.276 µM; in the assay with PC-3 prostate, 1.1 µM. Moreover, the GI50 in the assay on CCRF-CEM leukemia is 0.609 µM; in the assay on SW-620 colon it was 0.802 µM. Further, the TGI was 3.22 µM in the assay with NCI-H23 lung; 5.43 µM with HOP-92 NSCLC; 2.28 µM with SF-295 CNS; 18.1 µM in the assay on UACC-257 melanoma; 4.91 µM with A549 NSCLC; 16.5 µM with PC-3 prostate. Also, the TGI in the assay with CCRF-CEM leukemia is > 100 µM; in the assay on SW-620 colon it was 10.7 µM.
Consider `Cc1nc2sc(C(=O)Nc3cccc4ccccc34)c(N)c2cc1C(=O)c1ccccc1`, for which the GI50 in the assay with NCI-H23 lung is 3.55 µM; in the assay with HOP-92 NSCLC, 6.82 µM; with UACC-257 melanoma it was > 50 µM; in the assay with A549 NSCLC it was 0.403 µM; in the assay on PC-3 prostate, 1.78 µM; in the assay with CCRF-CEM leukemia, 1.66 µM. In addition, the GI50 in the assay on SW-620 colon was 1.71 µM. Also, the TGI in the assay with NCI-H23 lung, in the assay on HOP-92 NSCLC, with UACC-257 melanoma, in the assay with A549 NSCLC, with PC-3 prostate and in the assay on CCRF-CEM leukemia was > 50 µM throughout. For the same compound, in the assay with SW-620 colon, the TGI is > 50 µM.
In the case of `Cn1ncc2c(N)nc(N3CCCCC3)nc21`, the GI50 in the assay on NCI-H23 lung was 28.4 µM; in the assay with HOP-92 NSCLC, 44.3 µM; with SF-295 CNS it was 26.5 µM; in the assay on UACC-257 melanoma, 54.4 µM; in the assay with A549 NSCLC, 66.1 µM; in the assay on PC-3 prostate, 33.5 µM. The GI50 in the assay with CCRF-CEM leukemia was 25.7 µM; in the assay on SW-620 colon, 31 µM. Also, the TGI with NCI-H23 lung, in the assay with HOP-92 NSCLC, in the assay on SF-295 CNS, with UACC-257 melanoma, in the assay with A549 NSCLC and in the assay with PC-3 prostate was > 100 µM throughout. Moreover, the figures for the TGI in the assay with CCRF-CEM leukemia and in the assay on SW-620 colon were 85.7 µM and > 100 µM, respectively.
With `O=C(Nc1ccc(Cl)cc1)c1ccc(NC2=C(Cl)C(=O)N(Cc3ccccc3)C2=O)cc1`, the GI50 was 12.9 µM in the assay on NCI-H23 lung; 9.19 µM in the assay on HOP-92 NSCLC; 5.8 µM in the assay with SF-295 CNS; 22.2 µM in the assay with UACC-257 melanoma; 16.3 µM in the assay on A549 NSCLC; 11.4 µM in the assay on PC-3 prostate. In the assay on SW-620 colon, the GI50 was 6.36 µM. Besides, the TGI came out at 28.6 µM in the assay with NCI-H23 lung; 25.1 µM with HOP-92 NSCLC; 19.9 µM in the assay with SF-295 CNS; 63.5 µM in the assay on UACC-257 melanoma; 39.9 µM in the assay on A549 NSCLC; 27.1 µM with PC-3 prostate. The TGI with SW-620 colon was > 100 µM.
Take `Cc1sc(C)c(Cc2c(C)sc(C)c2CCl)c1CCl`: the GI50 in the assay with NCI-H23 lung, in the assay on SF-295 CNS, in the assay on UACC-257 melanoma, with A549 NSCLC, with CCRF-CEM leukemia and in the assay on SW-620 colon was > 100 µM in each case. Further, the TGI with NCI-H23 lung, in the assay with SF-295 CNS, in the assay with UACC-257 melanoma, with A549 NSCLC, in the assay with CCRF-CEM leukemia and with SW-620 colon was > 100 µM throughout.
For `Nc1ccc2c(c1)NCCN2`, the TGI in the assay on NCI-H23 lung, with HOP-92 NSCLC, in the assay on SF-295 CNS, in the assay with UACC-257 melanoma, with A549 NSCLC and in the assay with PC-3 prostate was > 100 µM each time.
With `CCCCNN`, the TGI in the assay with NCI-H23 lung, with SF-295 CNS, in the assay on UACC-257 melanoma, with A549 NSCLC, with PC-3 prostate and in the assay on CCRF-CEM leukemia was > 100 µM each time. Besides, the TGI in the assay on SW-620 colon was > 100 µM.
As to `CCOC(=O)C(CO)c1nc2c([nH]c1=O)c(=O)n(C)c(=O)n2C` (stereo not drawn), the TGI with NCI-H23 lung, with SF-295 CNS, in the assay with UACC-257 melanoma, with A549 NSCLC, with PC-3 prostate and in the assay on CCRF-CEM leukemia was > 100 µM each time. In addition, in the assay with SW-620 colon, the TGI is > 100 µM.
As to `NNc1cccc(/C=C/c2ccccc2)cc1=O`, the GI50 in the assay on HOP-92 NSCLC is 8.71 µM; in the assay on UACC-257 melanoma, 26.7 µM; in the assay with A549 NSCLC it was 7.78 µM; in the assay on PC-3 prostate, 7.87 µM; with CCRF-CEM leukemia, 1.36 µM; in the assay with SW-620 colon, 5.86 µM. Besides, the TGI is 70.7 µM in the assay with HOP-92 NSCLC; > 100 µM in the assay on UACC-257 melanoma; > 100 µM in the assay on A549 NSCLC; > 100 µM in the assay with PC-3 prostate; 29.5 µM in the assay with CCRF-CEM leukemia; > 100 µM in the assay with SW-620 colon.
As for `C1CSCCCSCCSCCCSC1`, the TGI in the assay on NCI-H23 lung, with HOP-92 NSCLC, in the assay on SF-295 CNS, in the assay on UACC-257 melanoma, in the assay on A549 NSCLC and with PC-3 prostate was > 100 µM in each case. Further, in the assay with SW-620 colon, the TGI is > 100 µM.
